In paper PMC8766756, “Insights on Cancer Cell Inhibition, Subcellular Activities, and Kinase Profile of Phenylacetamides Pending 1H-Imidazol-5-One Variants” (Frontiers in Pharmacology, 2022):
Where “and” joins values, the source holds several entries; their conditions need not be identical. Equal values may be shown once.

Legend:
Experiment in all cases: PamChip tyrosine kinase microarray
Format in all cases: biochemical
Settings in all cases: 0.1 µM, HL60 lysate
TRKC (Q16288) = target: T1, TRKC (Q16288) (Homo sapiens, UniProt Q16288)
T1 construct: purchased PamGene (PamChip PTK array, Upstream Kinase Analysis)
T1 sequence (Q16288 32-839): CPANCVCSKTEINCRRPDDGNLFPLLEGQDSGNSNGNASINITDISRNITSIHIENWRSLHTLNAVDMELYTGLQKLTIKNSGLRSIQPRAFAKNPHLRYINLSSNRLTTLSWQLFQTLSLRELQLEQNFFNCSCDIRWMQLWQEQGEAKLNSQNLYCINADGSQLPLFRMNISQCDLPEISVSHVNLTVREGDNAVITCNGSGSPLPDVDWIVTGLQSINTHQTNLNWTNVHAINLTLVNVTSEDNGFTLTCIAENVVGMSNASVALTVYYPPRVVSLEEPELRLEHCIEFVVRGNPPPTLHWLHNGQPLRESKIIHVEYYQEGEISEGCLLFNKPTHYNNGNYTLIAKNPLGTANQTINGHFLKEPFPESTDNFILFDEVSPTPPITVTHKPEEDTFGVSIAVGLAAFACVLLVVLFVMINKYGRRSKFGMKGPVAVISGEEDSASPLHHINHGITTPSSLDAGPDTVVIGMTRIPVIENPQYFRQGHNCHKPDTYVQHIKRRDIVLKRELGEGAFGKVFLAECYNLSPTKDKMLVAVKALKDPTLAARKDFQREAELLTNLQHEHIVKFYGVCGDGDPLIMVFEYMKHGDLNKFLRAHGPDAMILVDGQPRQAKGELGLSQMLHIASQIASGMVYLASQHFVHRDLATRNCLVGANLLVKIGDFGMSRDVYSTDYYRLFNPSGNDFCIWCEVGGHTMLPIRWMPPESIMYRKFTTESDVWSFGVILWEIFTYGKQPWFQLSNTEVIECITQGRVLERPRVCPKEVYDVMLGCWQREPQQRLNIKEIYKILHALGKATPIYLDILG
In short: (§1)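 HL60 (AML) cell lysate was spiked with compound at 0.001, 0.01, 0.1, 1, 10 and 50 µM, or 2% v/v DMSO as control, then profiled in technical replicates on a tyrosine kinase peptide array of 196 phosphosites. Kinase activity was inferred from peptide-set changes using an upstream kinase tool.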

CTK (P42679) = target: T2, CTK (P42679) (Homo sapiens, UniProt P42679)
T2 construct: purchased PamGene (PamChip PTK array, Upstream Kinase Analysis)
T2 sequence (P42679 1-507): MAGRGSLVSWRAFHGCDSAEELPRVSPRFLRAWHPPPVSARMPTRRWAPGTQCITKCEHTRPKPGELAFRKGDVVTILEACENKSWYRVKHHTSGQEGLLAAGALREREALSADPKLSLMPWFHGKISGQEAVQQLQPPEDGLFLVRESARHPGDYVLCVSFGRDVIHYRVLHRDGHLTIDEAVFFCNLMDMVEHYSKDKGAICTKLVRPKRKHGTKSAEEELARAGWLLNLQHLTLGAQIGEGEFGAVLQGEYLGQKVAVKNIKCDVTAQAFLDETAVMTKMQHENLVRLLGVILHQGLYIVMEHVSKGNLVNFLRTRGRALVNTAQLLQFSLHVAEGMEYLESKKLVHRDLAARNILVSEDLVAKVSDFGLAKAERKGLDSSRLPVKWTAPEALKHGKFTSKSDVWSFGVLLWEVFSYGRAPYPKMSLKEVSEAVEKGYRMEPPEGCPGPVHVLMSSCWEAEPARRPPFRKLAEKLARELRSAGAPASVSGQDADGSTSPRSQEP
In short: as §1

EphA2 (P29317) = target: T3, EphA2 (P29317) (Homo sapiens, UniProt P29317)
T3 construct: purchased PamGene (PamChip PTK array, Upstream Kinase Analysis)
T3 sequence (P29317 24-976): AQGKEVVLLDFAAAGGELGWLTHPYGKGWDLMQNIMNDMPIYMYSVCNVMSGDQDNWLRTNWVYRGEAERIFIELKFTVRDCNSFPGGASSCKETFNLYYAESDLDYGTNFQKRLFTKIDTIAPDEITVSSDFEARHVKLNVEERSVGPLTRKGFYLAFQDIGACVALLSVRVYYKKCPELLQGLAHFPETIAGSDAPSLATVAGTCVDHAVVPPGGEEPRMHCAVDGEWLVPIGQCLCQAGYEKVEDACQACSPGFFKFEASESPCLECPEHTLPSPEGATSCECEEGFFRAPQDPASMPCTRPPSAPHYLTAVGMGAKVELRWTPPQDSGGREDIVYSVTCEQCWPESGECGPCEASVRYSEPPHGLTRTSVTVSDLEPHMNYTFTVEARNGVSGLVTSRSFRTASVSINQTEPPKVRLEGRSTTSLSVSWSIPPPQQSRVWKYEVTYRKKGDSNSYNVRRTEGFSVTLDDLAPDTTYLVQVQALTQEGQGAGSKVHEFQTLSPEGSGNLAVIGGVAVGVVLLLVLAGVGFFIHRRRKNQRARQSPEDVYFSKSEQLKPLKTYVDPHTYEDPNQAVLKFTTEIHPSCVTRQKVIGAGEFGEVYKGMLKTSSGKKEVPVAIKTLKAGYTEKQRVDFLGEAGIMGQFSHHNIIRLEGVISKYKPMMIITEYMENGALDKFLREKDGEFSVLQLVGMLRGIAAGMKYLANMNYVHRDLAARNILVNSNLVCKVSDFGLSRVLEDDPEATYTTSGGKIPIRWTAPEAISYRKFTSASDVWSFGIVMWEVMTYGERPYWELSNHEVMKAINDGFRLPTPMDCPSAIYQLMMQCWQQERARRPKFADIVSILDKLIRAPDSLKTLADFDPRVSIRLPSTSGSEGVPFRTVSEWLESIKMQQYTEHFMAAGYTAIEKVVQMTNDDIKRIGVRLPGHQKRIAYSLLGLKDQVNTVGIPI
In short: as §1

Mer (Q12866) = target: T4, Mer (Q12866) (Homo sapiens, UniProt Q12866)
T4 construct: purchased PamGene (PamChip PTK array, Upstream Kinase Analysis)
T4 sequence (Q12866 21-999): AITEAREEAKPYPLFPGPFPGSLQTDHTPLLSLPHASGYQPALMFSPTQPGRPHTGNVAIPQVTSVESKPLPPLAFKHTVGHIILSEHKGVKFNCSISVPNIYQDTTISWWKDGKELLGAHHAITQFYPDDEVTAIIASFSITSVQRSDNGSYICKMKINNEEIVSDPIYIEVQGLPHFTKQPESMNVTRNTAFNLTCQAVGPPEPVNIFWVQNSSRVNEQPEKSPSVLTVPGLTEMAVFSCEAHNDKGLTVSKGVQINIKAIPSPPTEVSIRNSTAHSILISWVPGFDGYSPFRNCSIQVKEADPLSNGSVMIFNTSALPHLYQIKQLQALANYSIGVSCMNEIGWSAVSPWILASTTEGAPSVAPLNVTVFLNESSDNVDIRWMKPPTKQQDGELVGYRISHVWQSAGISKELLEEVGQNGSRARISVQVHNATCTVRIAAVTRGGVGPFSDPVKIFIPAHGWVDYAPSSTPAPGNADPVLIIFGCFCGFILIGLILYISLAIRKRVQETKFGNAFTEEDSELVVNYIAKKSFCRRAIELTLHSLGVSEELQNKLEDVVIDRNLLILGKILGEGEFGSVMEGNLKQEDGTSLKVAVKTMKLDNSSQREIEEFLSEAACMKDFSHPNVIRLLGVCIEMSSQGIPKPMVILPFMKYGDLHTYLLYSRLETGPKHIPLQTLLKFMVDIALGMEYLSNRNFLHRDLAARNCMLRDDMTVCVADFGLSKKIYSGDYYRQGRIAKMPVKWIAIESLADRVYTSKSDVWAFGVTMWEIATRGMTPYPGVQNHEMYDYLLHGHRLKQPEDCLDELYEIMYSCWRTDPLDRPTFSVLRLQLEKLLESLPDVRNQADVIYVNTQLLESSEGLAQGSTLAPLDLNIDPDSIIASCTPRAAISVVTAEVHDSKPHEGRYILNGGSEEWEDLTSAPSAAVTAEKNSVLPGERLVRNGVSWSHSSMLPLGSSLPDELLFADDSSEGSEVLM
In short: as §1

IGF1R (P08069) = target: T5, IGF1R (P08069) (Homo sapiens, UniProt P08069)
T5 construct: purchased PamGene (PamChip PTK array, Upstream Kinase Analysis)
T5 sequence (P08069 31-1367): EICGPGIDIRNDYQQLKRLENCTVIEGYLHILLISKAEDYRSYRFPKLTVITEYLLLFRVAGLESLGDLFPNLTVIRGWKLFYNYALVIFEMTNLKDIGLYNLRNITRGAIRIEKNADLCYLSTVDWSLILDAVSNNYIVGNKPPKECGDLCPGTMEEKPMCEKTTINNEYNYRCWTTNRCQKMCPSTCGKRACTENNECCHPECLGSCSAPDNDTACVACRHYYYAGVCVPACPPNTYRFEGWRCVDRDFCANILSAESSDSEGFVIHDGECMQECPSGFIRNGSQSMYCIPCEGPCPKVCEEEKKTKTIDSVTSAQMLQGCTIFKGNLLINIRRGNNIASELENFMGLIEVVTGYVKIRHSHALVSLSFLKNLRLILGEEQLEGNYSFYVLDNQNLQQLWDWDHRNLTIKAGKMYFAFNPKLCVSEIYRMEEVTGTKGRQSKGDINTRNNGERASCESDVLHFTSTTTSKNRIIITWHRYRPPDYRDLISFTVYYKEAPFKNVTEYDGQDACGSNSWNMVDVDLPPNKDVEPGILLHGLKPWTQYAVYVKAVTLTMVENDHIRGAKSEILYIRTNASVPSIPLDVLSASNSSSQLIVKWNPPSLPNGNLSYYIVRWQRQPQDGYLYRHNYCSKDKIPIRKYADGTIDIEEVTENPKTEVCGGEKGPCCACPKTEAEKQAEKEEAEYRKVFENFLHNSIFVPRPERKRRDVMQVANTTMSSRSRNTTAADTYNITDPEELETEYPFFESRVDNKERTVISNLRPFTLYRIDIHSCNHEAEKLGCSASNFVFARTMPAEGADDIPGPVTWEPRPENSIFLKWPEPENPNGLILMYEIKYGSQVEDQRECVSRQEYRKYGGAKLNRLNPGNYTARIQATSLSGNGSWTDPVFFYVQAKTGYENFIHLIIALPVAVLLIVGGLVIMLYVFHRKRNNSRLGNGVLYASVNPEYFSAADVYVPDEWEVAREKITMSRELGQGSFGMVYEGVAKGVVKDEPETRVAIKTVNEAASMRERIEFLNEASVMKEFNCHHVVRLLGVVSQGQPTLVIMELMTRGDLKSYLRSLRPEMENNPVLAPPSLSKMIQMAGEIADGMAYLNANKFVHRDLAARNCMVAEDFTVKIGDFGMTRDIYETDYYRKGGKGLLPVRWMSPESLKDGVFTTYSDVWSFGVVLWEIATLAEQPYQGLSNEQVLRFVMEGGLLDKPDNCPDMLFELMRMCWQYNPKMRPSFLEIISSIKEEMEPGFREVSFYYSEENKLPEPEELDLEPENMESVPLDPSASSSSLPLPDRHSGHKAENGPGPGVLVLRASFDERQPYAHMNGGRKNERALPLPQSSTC
In short: as §1

## COc1ccc(/C=C2\N=C(C)N(c3ccc(CC(=O)NCc4ccccc4)cc3)C2=O)cc1 [Compound 4c, (Z)-N-Benzyl-2-(4-(4-(4-methoxybenzylidene)-2-methyl-5-oxo-4,5-dihydro-1H-imidazol-1-yl)phenyl)acetamide]
TRKC (Q16288)
  Mean Final score (Kinase score): 2.207
  Mean Kinase Statistic: -1.079
  Mean Significance Score: 2.048
  Mean Specificity Score: 0.1464
CTK (P42679)
  Mean Final score (Kinase score): 2.298
  Mean Kinase Statistic: -1.147
  Mean Significance Score: 2.048
  Mean Specificity Score: 0.2322
EphA2 (P29317)
  Mean Significance Score: 1.975
  Mean Specificity Score: 0.9606
EphA2 (P29317); listed as KIM-161
  Mean Final score (Kinase score): 3.09 and 3.095
Mer (Q12866)
  Mean Final score (Kinase score): 2.544
  Mean Kinase Statistic: -1.224
  Mean Significance Score: 2.048
  Mean Specificity Score: 0.533
IGF1R (P08069)
  Mean Final score (Kinase score): 2.173
  Mean Kinase Statistic: -1.034
  Mean Significance Score: 2.048
  Mean Specificity Score: 0.1033
